Key:
[1] = biological target: cAMP-dependent protein kinase A (Bos taurus) (UniProt P00517+P05131+P31322+P00515)
Description: Activation of cAMP-dependent protein kinase type II

Description for Oryctolagus cuniculus: Activation of cAMP-dependent protein kinase type I

Compound | K'a [1] | K'a (Oryctolagus cuniculus)
Nc1cccc2c1cnn2[C@H]1O[C@@H]2COP(=O)(O)O[C@H]2[C@H]1O | 0.54 | 0.65
O=P1(O)OC[C@H]2O[C@@H](n3ncc4ccccc43)[C@H](O)[C@@H]2O1 | 0.048 | 0.014
O=[N+]([O-])c1cccc2c1ncn2[C@@H]1O[C@@H]2COP(=O)(O)O[C@H]2[C@H]1O | 1.56 | 0.08
Nc1cccc2c1nnn2[C@@H]1O[C@@H]2COP(=O)(O)O[C@H]2[C@H]1O | 0.93 | 0.88
O=[N+]([O-])c1cccc2c1nnn2[C@@H]1O[C@@H]2COP(=O)(O)O[C@H]2[C@H]1O | 1 | 0.88
O=[N+]([O-])c1cccc2c1cnn2[C@@H]1O[C@@H]2COP(=O)(O)O[C@H]2[C@H]1O | 2.5 | 1.17
Nc1cccc2c1ncn2[C@@H]1O[C@@H]2COP(=O)(O)O[C@H]2[C@H]1O | 0.67 | 0.2
O=P1(O)OC[C@H]2O[C@@H](n3nc4ccccc4n3)[C@H](O)[C@@H]2O1 | 3.5 | 0.82
O=P1(O)OC[C@H]2O[C@@H](n3cc4ccccc4n3)[C@H](O)[C@@H]2O1 | 1.4 | 0.14
O=P1(O)OC[C@H]2O[C@@H](n3nnc4ccccc43)[C@H](O)[C@@H]2O1 (stereo in doubt) | 0.7 | 0.25
O=P1(O)OC[C@H]2O[C@@H](n3nnc4ccccc43)[C@H](O)[C@@H]2O1 (stereo in doubt; 14) | 0.88 | 0.64
